From paper PMC6423584, “New sesquiterpenoids from the South China Sea soft corals Clavularia viridis and Lemnalia flava” (Beilstein Journal of Organic Chemistry, 2019)

Key:
[1] = tested on: NF-κB signaling pathway in stable HEK293/NF-κB cells; assay: NF-κB signaling pathway inhibitory activity assay (luciferase reporter, TNF-α stimulation); format: cell-based; conditions: Homo sapiens, luciferase read after 6 h
Method: NF-κB signaling pathway inhibitory activity was evaluated according to the previously reported protocol. Stable HEK293/NF-κB cells were plated into 384-well plates at a concentration of approximate 2500 cells per well. After culturing overnight, compounds were added to the medium at a final concentration of 0.1 μg/mL. HEK293/NF-κB cells were seeded into 96-well cell culture plates (Corning, NY, USA) and allowed to grow for 24 h. The cells were then treated with compounds, followed by stimulation with TNF-α. 6 h later, the luciferase substrate was added to each well, and the released luciferin signal was detected using an EnVision microplate reader. The IC50 was calculated with Prism 4 software (Graphpad, San Diego, CA) from the nonlinear curve fitting of the percentage of inhibition (% inhibition) versus the inhibitor concentration [I] by using the following equation: % inhibition = 100/(1 + [IC50/[I]]^k), where k is the Hill coefficient.

[2] = molecular target: T1, recombinant PTP1B catalytic domain (Homo sapiens, UniProt P18031); assay: PTP1B inhibitory activity assay (pNPP hydrolysis); format: biochemical; conditions: pNPP substrate, 30 °C, pH 6.5; IC50 ≥ 50 μM was considered inactive
T1 construct: The recombinant PTP1B catalytic domain was expressed and purified according to a previous report; made in house
T1 sequence (P18031 3-277 limits assumed): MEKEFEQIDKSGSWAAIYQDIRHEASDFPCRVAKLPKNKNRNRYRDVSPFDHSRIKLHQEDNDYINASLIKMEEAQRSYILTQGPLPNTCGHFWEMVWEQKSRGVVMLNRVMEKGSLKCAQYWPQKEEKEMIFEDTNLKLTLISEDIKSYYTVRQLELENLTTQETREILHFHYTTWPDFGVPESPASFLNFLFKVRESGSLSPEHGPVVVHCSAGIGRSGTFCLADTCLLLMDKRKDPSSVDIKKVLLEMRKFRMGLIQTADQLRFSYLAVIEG
Method: The recombinant PTP1B catalytic domain was expressed and purified according to a previous report. The enzymatic activities of the PTP1B catalytic domain were determined at 30 °C by monitoring the hydrolysis of pNPP. Dephosphorylation of pNPP generated the product pNP, which was monitored at an absorbance of 405 nm with an EnVision multilabel plate reader (Perkin–Elmer Life Sciences, Boston, MA). In a typical […] assay mixture containing 50 mmol/L 3-morpholinopropanesulfonic acid, pH 6.5, 2 mmol/L pNPP, and 30 nmol/L recombinant PTP1B, activities were continuously monitored and the initial rate of hydrolysis was determined by using the early linear region of the enzymatic reaction kinetic curve.

Work on `CC(C)C[C@H](NC(=O)[C@H](Cc1ccccc1)NC(=O)c1cnccn1)B(O)O` [bortezomib, reference compound] yielded an IC50 [1] of 14 µM.
Molecule `Cc1cc(Br)c(C2(C)CCC(=CBr)C2C)cc1O` (stereo not shown) [compound 1, isobromolaurenisol] has an IC50 [1] of 19.9 µM and an IC50 [2] of 18.8 µM.
For `C=C1CCC(C)(c2cc(O)c(C)cc2Br)C1C` (stereo not shown) [compound 2, clalaurenol A], the IC50 [1] was 6.8 µM and the IC50 [2] was 21.8 µM.
With `Cc1ccc(C2(C)CCC(=CBr)C2C)c(O)c1` (stereo not drawn) [compound 3, ent-laurenisol] the IC50 [2] was over 50 µM and the “IC50 (μM) PTP1B” value [2] was “inactive”.
For `Cc1cc(O)c(C2(C)CCC(=CBr)C2C)cc1Br` (stereo not shown) [compound 4, clalaurenol B], the IC50 [1] was 7.3 µM and the IC50 [2] was 15.6 µM.
Molecule `Cc1cc(Br)c([C@]2(C)CC=CC2(C)C)cc1O` [compound 5, cupalaurenol] has an IC50 [2] of over 50 µM.
Work on `C=C1CCC2C(C3C(C)CCC13O)C2(C)C` (stereo not shown) [compound 6, claaromadendrene] yielded an IC50 [2] of over 50 µM.
In the case of `C=C1CC[C@H]2[C@@H]([C@H]3[C@@H](C)CC[C@@]13O)C2(C)C` [compound 7, 1-hydroxyalloaromadendrene], the IC50 [2] is reported as over 50 µM.
In the case of `C/C1=C\CC(C)(C)/C=C/C[C@@]2(C)O[C@@H]2CC1` [compound 8, humulene epoxide II], the IC50 [2] is reported as over 50 µM.
